Measurements reported in patent US4243408A, “Herbicidal N-triazolylmethyl-substituted alpha-haloacetanilide” (Chevron Research Company, priority 1978, dated 1981).

Assays:
Assay type in all cases: in vivo
[1] = system: Wild Oats (Avena fatua); experiment: Pre-Emergent Test, herbicidal effectiveness; settings: pre-emergence, 504 h, 33 micrograms per cm^2, 3 weeks, 0-to-100 scale, read-out: Herbicidal Effectiveness, % Control Pre, O
Protocol: (§1) An acetone solution of the test compound was prepared by mixing 750 mg of the compound, 220 mg of a nonionic surfactant and 25 ml of acetone. This solution was added to approximately 125 ml of water containing 156 mg of surfactant.
(§2) Seeds of the test vegetation were planted in a pot of soil and the test solution was sprayed uniformly onto the soil surface at a dose of 33 micrograms/cm^2. The pot was watered and placed in a greenhouse. […] At the end of this period, the herbicidal effectiveness of the compound was rated based on the physiological observations. A 0-to-100 scale was used, 0 representing no phytotoxicity, 100 representing complete kill.

[2] = system: Mustard (Brassica arvensis); experiment: Pre-Emergent Test, herbicidal effectiveness; settings: pre-emergence, 504 h, 33 micrograms per cm^2, 3 weeks, 0-to-100 scale
Protocol: as §1, §2

[3] = system: Pigweed (Amaranthus retroflexus); experiment: Pre-Emergent Test, herbicidal effectiveness; settings: pre-emergence, 504 h, 33 micrograms per cm^2, 3 weeks, 0-to-100 scale, read-out: Herbicidal Effectiveness, % Control Pre, P
Protocol: as §1, §2

[4] = system: Watergrass (Echinochloa); experiment: Pre-Emergent Test, herbicidal effectiveness; settings: pre-emergence, 504 h, 33 micrograms per cm^2, 3 weeks, 0-to-100 scale, read-out: Herbicidal Effectiveness, % Control Pre, W
Protocol: as §1, §2

[5] = system: Lambsquarter (Chenopodium album); experiment: Pre-Emergent Test, herbicidal effectiveness; settings: pre-emergence, 504 h, 33 micrograms per cm^2, 3 weeks, 0-to-100 scale, read-out: Herbicidal Effectiveness, % Control Pre, L
Protocol: as §1, §2

[6] = system: Crabgrass (Digitaria sanguinalis); experiment: Pre-Emergent Test, herbicidal effectiveness; settings: pre-emergence, 504 h, 33 micrograms per cm^2, 3 weeks, 0-to-100 scale, read-out: Herbicidal Effectiveness, % Control Pre, C
Protocol: as §1, §2

[7] = system: Wild Oats (Avena fatua); experiment: Post-Emergent Test, herbicidal effectiveness; settings: post-emergence, 504 h, 33 micrograms per cm^2, 3 weeks, 0-to-100 scale, read-out: Herbicidal Effectiveness, % Control Post, O
[8] = system: Mustard (Brassica arvensis); experiment: Post-Emergent Test, herbicidal effectiveness; settings: post-emergence, 504 h, 33 micrograms per cm^2, 3 weeks, 0-to-100 scale
[9] = system: Pigweed (Amaranthus retroflexus); experiment: Post-Emergent Test, herbicidal effectiveness; settings: post-emergence, 504 h, 33 micrograms per cm^2, 3 weeks, 0-to-100 scale, read-out: Herbicidal Effectiveness, % Control Post, P
[10] = system: Watergrass (Echinochloa); experiment: Post-Emergent Test, herbicidal effectiveness; settings: post-emergence, 504 h, 33 micrograms per cm^2, 3 weeks, 0-to-100 scale, read-out: Herbicidal Effectiveness, % Control Post, W
[11] = system: Lambsquarter (Chenopodium album); experiment: Post-Emergent Test, herbicidal effectiveness; settings: post-emergence, 504 h, 33 micrograms per cm^2, 3 weeks, 0-to-100 scale, read-out: Herbicidal Effectiveness, % Control Post, L
[12] = system: Crabgrass (Digitaria sanguinalis); experiment: Post-Emergent Test, herbicidal effectiveness; settings: post-emergence, 504 h, 33 micrograms per cm^2, 3 weeks, 0-to-100 scale, read-out: Herbicidal Effectiveness, % Control Post, C

Row | SMILES | pest or weed control at 33 µg/cm2 [1] | pest or weed control at 33 µg/cm2 [2] | pest or weed control at 33 µg/cm2 [3] | pest or weed control at 33 µg/cm2 [4] | pest or weed control at 33 µg/cm2 [5] | pest or weed control at 33 µg/cm2 [6] | pest or weed control at 5000 µg/mL, 33 µg/cm2 [7] | pest or weed control at 5000 µg/mL, 33 µg/cm2 [8] | pest or weed control at 5000 µg/mL, 33 µg/cm2 [9] | pest or weed control at 5000 µg/mL, 33 µg/cm2 [10] | pest or weed control at 5000 µg/mL, 33 µg/cm2 [11] | pest or weed control at 5000 µg/mL, 33 µg/cm2 [12]
1 | CCc1cccc(C)c1NCc1nnc[nH]1 [Compound 17A] | 0% | 0% | 0% | 0% | 0% | 0% | 0% | 0% | 0% | 0% | 0% | 0%
2 | CCc1cccc(C)c1N(Cc1nnc[nH]1)C(=O)CCl [Compound 17B] | 100% | 90% | 95% | 100% | 100% | 100% | 60% | 75% | 65% | 75% | 65% | 75%
3 | Cc1cccc(C)c1NCc1nnc(S)[nH]1 [Compound 18A] | 0% | 0% | 0% | 0% | 0% | 0% | 0% | 0% | 0% | 0% | 0% | 0%
4 | Cc1cccc(C)c1N(Cc1nnc(S)[nH]1)C(=O)CCl [Compound 18B] | 0% | 0% | 0% | 0% | 0% | 0% | 0% | 0% | 0% | 0% | 0% | 0%
5 | CCc1cccc(C)c1NCc1nnc(S)n1C [Compound 19] | 0% | 0% | 0% | 0% | 0% | 0% | 0% | 0% | 0% | 0% | 0% | 0%
6 | CCc1cccc(CC)c1NCc1nnc[nH]1 [Compound 20A] | 0% | 0% | 0% | 0% | 0% | 0% | 0% | 0% | 0% | 0% | 0% | 0%
7 | CCc1cccc(CC)c1N(Cc1nnc[nH]1)C(=O)CCl [Compound 20B] | 97% | 95% | 100% | 100% | 97% | 95% | 0% | 30% | 35% | 55% | 25% | 30%
8 | CCc1cccc(C)c1NCc1nnc(SC)n1C [Compound 21A] | 0% | 0% | 0% | 0% | 0% | 0% | 0% | 0% | 0% | 0% | 0% | 0%
9 | CCc1cccc(C)c1N(Cc1nnc(SC)n1C)C(=O)CCl [Compound 21B] | 0% | 0% | 0% | 98% | 0% | 0% | 0% | 0% | 0% | 0% | 0% | 0%
10 | Cc1nnc(CNc2c(C)cccc2Cl)[nH]1 [Compound 22A] | 0% | 0% | 0% | 0% | 0% | 0% | 0% | 0% | 0% | 0% | 0% | 0%
11 | Cc1nnc(CN(C(=O)CCl)c2c(C)cccc2Cl)[nH]1 [Compound 22B] | 95% | 80% | 93% | 100% | 85% | 100% | 0% | 25% | 75% | 60% | 20% | 0%
12 | CCc1cccc(CC)c1NCc1nnc(SC)n1C [Compound 23A] | 0% | 0% | 0% | 0% | 0% | 0% | 0% | 0% | 0% | 0% | 0% | 0%
13 | CCc1cccc(CC)c1N(Cc1nnc(SC)n1C)C(=O)CCl [Compound 23B] | 0% | 0% | 0% | 0% | 0% | 0% | 0% | 0% | 0% | 0% | 0% | 0%
